Patent publication US6998143B1, “Ferric fortification system” (Nestec S.A., priority 1999, dated 2006)

Tests used:
[1] = Lipid oxidation induction time in fish oil (Rancimat); assay type: physicochemical; conditions: fish oil in place of chicken fat, 100° C.
Experimental: The powder of example 3 is added to chicken fat to provide 40 mg of iron per 1000 g of fat. As a negative control, ferric sulfate is added to chicken fat to provide the same iron loading. Chicken fat without any added iron is used as a positive control.
The fat samples are heated to 100° C. and the lipid oxidation induction time is determined using a Rancimat. No difference in induction time between the fat fortified with the powder of example 3 and the positive control is determined. The induction time of the negative control is 30 to 40% less.
The procedure of example 8 is repeated except that fish oil is used in place of chicken fat. The results are similar.

[2] = test system: weanling male Sprague-Dawley rats; test: Iron bioavailability by hemoglobin repletion in anemic rats (slope-ratio); assay type: in vivo, rat
Experimental: Animals:—The animals used are weanling male Sprague-Dawley rats aged 3 weeks (IFFA-CREDO, L'Arbresle, France).
This diet is casein based and provides for the nutritional requirements of growing rats except for iron.
Diet 1:—The control diet supplemented with the complex of example 2 to provide 10 mg/kg iron.
Diet 2:—The control diet supplemented with the complex of example 2 to provide 20 mg/kg iron.
1) Hemoglobin analysis is performed by anaesthetizing the rats with isoflurane and then drawing a sample of 200 μL of blood from the orbital venous plexus. Blood hemoglobin level in the sample is determined by the cyanmethemoglobin method (Hb kit MPR 3, Bochringer Mannheim GmbH, Germany), using an automated instrument (Hemocue, Baumann-Medical SA, Wetzikon, Switzerland). Commercial quality control blood samples (Dia-HT Kontrollblut, Dia MED, Cressier, Switzerland) having a range of hemoglobin levels are measured with all hemoglobin determinations.
A multiple regression equation relates amounts of iron added to the hemoglobin levels. The equation provides one straight line per diet which intercepts at zero dose.
Procedure:—Rats are housed individually in polycarbonate cages, fitted with stainless steel grids. The animals are allowed free access to distilled water. […] Fresh diet is supplied daily. Spoiling of diet by rats is reduced by covering the diet with a grid.
After 24 days, hemoglobin and weight is determined. Fifty rats with hemoglobin levels between […] are randomized into 5 groups of 10 having approximately equal mean hemoglobin and body weight. Each group of animals is fed one of the experimental diets for 14 days. The rats are fed the diets ad libitum beginning with 20 g/day at day 0. The rats have free access to distilled water. Individual food consumption is measured daily. After 14 days, the rats are weighed and hemoglobin is determined.

[3] = diet with 10 mg/kg added Fe for 14 days
[4] = diet with 20 mg/kg added Fe for 14 days

Structure (SMILES) | lipid oxidation induction time results compared with those of example 8 [1] | Initial hemoglobin, mean (standard deviation) ([2]; baseline before diet with 10 mg/kg added Fe) | Initial hemoglobin, mean (standard deviation) ([2]; baseline before diet with 20 mg/kg added Fe) | Difference in hemoglobin (final minus initial), mean [2, 3] | Final hemoglobin, mean [2, 3] | Difference in hemoglobin (final minus initial), mean [2, 4] | Final hemoglobin, mean [2, 4]
O=S(=O)([O-])[O-].O=S(=O)([O-])[O-].O=S(=O)([O-])[O-].[Fe+3].[Fe+3] [ferric sulfate] | similar |  |  |  |  |  | 
O.O.O.O.O.O.O.O=S(=O)([O-])[O-].[Fe+2] [FeSO4.7H2O, ferrous sulfate heptahydrate] |  | 5.12 (0.41) g/dl | 5.12 (0.40) g/dl | 3.54 g/dL | 8.66 g/dL | 6.41 g/dL | 11.53 g/dL
